Reference: publication PMC10876879, “Sustained silencing peanut allergy by xanthopurpurin is associated with suppression of peripheral and bone marrow IgE-producing B cell” (Frontiers in Immunology, 2024)
Where two headings read alike, the source gives them in different places.

Assays:
IgE = test system: IgE; design: method as in PMID 26185589; conditions: cited from earlier work
IgE production [1] = assay: IgE production in vitro, other R. cordifolia compounds (data not shown); assay type: cell-based
IgE production [2] = assay: IgE production in vivo, other R. cordifolia compounds (data not shown)
IgE production [3] = conditions: cited from earlier work
PN-allergic mice = conditions: oral berberine alone; cited from earlier work
[4] = design: method as in PMID 28208101; conditions: cited from earlier work

omalizumab: anti-IgE therapy, neutralizes free serum IgE
Anaphylactic reactions during oral immunotherapy (OIT) (IgE): greatly reduce anaphylactic reactions

O=C1c2ccccc2C(=O)c2c(O)c(O)cc(O)c21 [purpurin, 1,2,4-trihydroxyanthraquinone]
IgE production in vitro (IgE production [1]): inhibited IgE production only in vitro
IgE production in vivo (IgE production [2]): failed in vivo

1,3-dihydroxy-2-ethoxymethyl-9,10 anthraquinone [alizarin]
IgE production in vitro (IgE production [1]): inhibited IgE production only in vitro
IgE production in vivo (IgE production [2]): failed in vivo

COc1ccc2cc3[n+](cc2c1OC)CCc1cc2c(cc1-3)OCO2 [berberine]
IgE production in vitro (IgE production [3]): significantly inhibited the IgE production
PN-specific IgE levels (PN-allergic mice): did not reduce PN-specific IgE levels
Protection from anaphylaxis (PN-allergic mice): failed to protect PN-allergic mice from anaphylaxis
Bioavailability [4]: poor
